In patent publication US20240158446A1, “CYCLIC COMPOUND HAVING SELECTIVE INHIBITORY ACTION ON KRAS OVER HRAS AND NRAS” (CHUGAI SEIYAKU KABUSHIKI KAISHA, priority 2021, published 2024):

How the values were obtained:
[1] = biological target: GDP-bound HRAS wild-type protein (Homo sapiens, UniProt P01112); experiment: Binding to HRAS by surface plasmon resonance (SPR), Single Cycle Kinetics; conditions: SPR KD ratio HRAS/KRAS, class symbols
[2] = biological target: GDP-bound NRAS wild-type protein (Homo sapiens, UniProt P01111); experiment: Binding to NRAS by surface plasmon resonance (SPR), Single Cycle Kinetics; conditions: SPR KD ratio NRAS/KRAS, class symbols
GDP-bound NRAS wild-type protein, sequence (P01111 whole entry): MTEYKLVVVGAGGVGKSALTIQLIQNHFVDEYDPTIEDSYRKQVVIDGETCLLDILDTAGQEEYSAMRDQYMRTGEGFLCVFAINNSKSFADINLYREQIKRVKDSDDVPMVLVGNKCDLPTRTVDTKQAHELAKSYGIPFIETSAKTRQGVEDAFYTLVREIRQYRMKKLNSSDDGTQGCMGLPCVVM

[3] = biological target: GDP-bound KRAS wild-type protein (Homo sapiens, UniProt P01116); experiment: Binding to KRAS by surface plasmon resonance (SPR), Single Cycle Kinetics; conditions: SPR Single Cycle Kinetics, GDP-bound KRAS wild-type protein, 1:1 binding model; read-out: KRAS KD
GDP-bound KRAS wild-type protein, sequence (P01116 whole entry): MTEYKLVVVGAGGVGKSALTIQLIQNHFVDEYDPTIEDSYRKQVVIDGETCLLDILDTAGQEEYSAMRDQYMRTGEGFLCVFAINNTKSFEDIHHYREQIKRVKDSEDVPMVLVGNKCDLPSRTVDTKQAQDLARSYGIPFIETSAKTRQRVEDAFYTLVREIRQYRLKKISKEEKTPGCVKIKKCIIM

GDP-bound HRAS wild-type protein, sequence (P01112 whole entry): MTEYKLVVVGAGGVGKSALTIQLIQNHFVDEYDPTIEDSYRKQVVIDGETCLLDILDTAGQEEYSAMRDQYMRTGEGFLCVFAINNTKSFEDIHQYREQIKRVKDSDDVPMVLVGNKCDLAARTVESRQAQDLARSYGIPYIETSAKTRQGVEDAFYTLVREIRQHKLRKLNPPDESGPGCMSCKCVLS

Kd [3] [nM]	Compound	HRAS/KRAS (ratio of KD value with respect to GDP-bound HRAS wild-type protein to KD value with respect to KRAS) [1]	NRAS/KRAS (ratio of KD value with respect to GDP-bound NRAS wild-type protein to KD value with respect to KRAS) [2]
4.5	CCO[C@@H]1C[C@H]2C(=O)NC3(CCC3)C(=O)N(C)[C@@H](C3CCCC3)C(=O)N(C)[C@H](C(=O)N(C)C)CC(=O)N(C)[C@@H](CC3CCCC3)C(=O)N[C@@H]([C@@H](C)CC)C(=O)N(C)CC(=O)N(C)[C@H]3C/C=C\CCN(C3=O)[C@@H](Cc3ccc(C)cc3)C(=O)N(C)CC(=O)N[C@@H](CCc3cc(C)c(C(F)F)c(C)c3)C(=O)N2C1 [PP2675]	A (a compound having 10 or more and less than 20 is denoted as A)	A (a compound having 10 or more and less than 20 is denoted as A)
0.87	CCO[C@@H]1C[C@H]2C(=O)NC3(CCC3)C(=O)N(C)[C@@H](C3CCCC3)C(=O)N(C)[C@H](C(=O)N(C)C)CC(=O)N(C)[C@@H](CC3CCCC3)C(=O)N[C@@H]([C@@H](C)CC)C(=O)N(C)CC(=O)N(C)[C@H]3C/C=C\CCN(C3=O)[C@@H](Cc3ccc(C)cc3)C(=O)N(C)CC(=O)N[C@@H](CCc3cc(C)c(C(F)F)c(F)c3)C(=O)N2C1 [PP2676]	A (a compound having 10 or more and less than 20 is denoted as A)	A (a compound having 10 or more and less than 20 is denoted as A)
1.3	CCO[C@@H]1C[C@H]2C(=O)NC3(CCC3)C(=O)N(C)[C@@H](C3CCCC3)C(=O)N(C)[C@H](C(=O)N(C)C)CC(=O)N(C)[C@@H](CC3CCCC3)C(=O)N[C@@H]([C@@H](C)CC)C(=O)N(C)CC(=O)N(C)[C@H]3C/C=C\CCN(C3=O)[C@@H](Cc3ccc(C)cc3)C(=O)N(C)CC(=O)N[C@@H](CCc3cc(C)c(C(F)F)c(Cl)c3)C(=O)N2C1 [PP2677]	A (a compound having 10 or more and less than 20 is denoted as A)	A (a compound having 10 or more and less than 20 is denoted as A)
0.099	CCO[C@@H]1C[C@H]2C(=O)NC3(CCC3)C(=O)N(C)[C@@H](C3CCCC3)C(=O)N(C)[C@H](C(=O)N(C)C)CC(=O)N(C)[C@@H](CC3CCCC3)C(=O)N[C@@H]([C@@H](C)CC)C(=O)N(C)CC(=O)N(C)[C@H]3C/C=C\CCN(C3=O)[C@@H](Cc3ccc(C)cc3)C(=O)N(C)CC(=O)N[C@@H](CCc3cc(Cl)c(C(F)(F)F)c(Cl)c3)C(=O)N2C1 [PP2679]	A (a compound having 10 or more and less than 20 is denoted as A)	A (a compound having 10 or more and less than 20 is denoted as A)
0.87	CCO[C@@H]1C[C@H]2C(=O)NC3(CCC3)C(=O)N(C)[C@@H](C3CCCC3)C(=O)N(C)[C@H](C(=O)N(C)C)CC(=O)N(C)[C@@H](CC3CCCC3)C(=O)N[C@@H]([C@@H](C)CC)C(=O)N(C)CC(=O)N(C)[C@H]3C/C=C\CCN(C3=O)[C@@H](Cc3ccc(C)cc3)C(=O)N(C)CC(=O)N[C@@H](CCc3ccc(C4CC4)c(F)c3)C(=O)N2C1 [PP2683]	A (a compound having 10 or more and less than 20 is denoted as A)	A (a compound having 10 or more and less than 20 is denoted as A)
2.1	CCO[C@@H]1C[C@H]2C(=O)NC3(CCC3)C(=O)N(C)[C@@H](C3CCCC3)C(=O)N(C)[C@H](C(=O)N(C)C)CC(=O)N(C)[C@@H](CC3CCCC3)C(=O)N[C@@H]([C@@H](C)CC)C(=O)N(C)CC(=O)N(C)[C@H]3C/C=C\CCN(C3=O)[C@@H](Cc3ccc(C)cc3)C(=O)N(C)CC(=O)N[C@@H](CCc3ccc(C4CC4)c(C)c3)C(=O)N2C1 [PP2685]	A (a compound having 10 or more and less than 20 is denoted as A)	A (a compound having 10 or more and less than 20 is denoted as A)
2.5	CCO[C@@H]1C[C@H]2C(=O)NC3(CC(C)(C)C3)C(=O)N(C)[C@@H](CC3CCC3)C(=O)N(C)[C@H](C(=O)N(C)C)CC(=O)N(C)[C@@H](COC)C(=O)N[C@@H]([C@@H](C)CC)C(=O)N(C3CC3)CC(=O)N(C)[C@H]3C/C=C\CCN(C3=O)[C@@H](Cc3ccc(C(F)(F)F)cc3)C(=O)N(C)CC(=O)N[C@@H](CCc3cc(F)c(C(F)(F)F)c(F)c3)C(=O)N2C1 [PP2769]	A (a compound having 10 or more and less than 20 is denoted as A)	AA (a compound having 20 or more is denoted as AA)
5	CCC[C@H]1C(=O)N[C@@H]([C@@H](C)CC)C(=O)N(C2CC2)CC(=O)N(C)[C@H]2C/C=C\CCN(C2=O)[C@@H](Cc2ccc(C(F)(F)F)cc2)C(=O)N(C)CC(=O)N[C@@H](CCc2ccc(C(F)(F)F)c(OC)c2)C(=O)N2C[C@H](OCC)C[C@H]2C(=O)NC2(CC(C)(C)C2)C(=O)N(C)[C@@H](CC2CCC2)C(=O)N(C)[C@H](C(=O)N(C)C)CC(=O)N1C [PP2770]	A (a compound having 10 or more and less than 20 is denoted as A)	A (a compound having 10 or more and less than 20 is denoted as A)
2.2	CCO[C@@H]1C[C@H]2C(=O)NC3(CC(C)(C)C3)C(=O)N(C)[C@@H](CC3CCC3)C(=O)N(C)[C@H](C(=O)N(C)C)CC(=O)N(C)[C@@H](COC)C(=O)N[C@@H]([C@@H](C)CC)C(=O)N(C3CC3)CC(=O)N(C)[C@H]3C/C=C\CCN(C3=O)[C@@H](Cc3ccc(C(F)(F)F)cc3)C(=O)N(C)CC(=O)N[C@@H](CCc3ccc(C(F)(F)F)c(OC)c3)C(=O)N2C1 [PP2771]	A (a compound having 10 or more and less than 20 is denoted as A)	AA (a compound having 20 or more is denoted as AA)
0.43	CCO[C@@H]1C[C@H]2C(=O)NC3(CCC3)C(=O)N(C)[C@@H](CC(C)(C)C)C(=O)N(C)[C@H](C(=O)N3CCCC3)CC(=O)N(C)[C@@H](CC)C(=O)N[C@@H]([C@@H](C)CC)C(=O)N(C)CC(=O)N(C)[C@H]3C/C=C\CCN(C3=O)[C@@H](CC3CCCCC3)C(=O)N(C)CC(=O)N[C@@H](CCc3cc(F)c(C(F)(F)F)c(F)c3)C(=O)N2C1 [PP2772]	B (a compound having 3 or more and less than 10 is denoted as B)	B (a compound having 3 or more and less than 10 is denoted as B)
0.52	CCO[C@@H]1C[C@H]2C(=O)NC3(CC(C)(C)C3)C(=O)N(C)[C@@H](CC(C)(C)C)C(=O)N(C)[C@H](C(=O)N(C)C)CC(=O)N(C)[C@@H](C(C)C)C(=O)N[C@@H]([C@@H](C)CC)C(=O)N(C)CC(=O)N(C)[C@H]3C/C=C\CCN(C3=O)[C@@H](Cc3ccc(C(F)(F)F)cc3)C(=O)N(C)CC(=O)N[C@@H](CCc3ccc(C(F)(F)F)c(OC)c3)C(=O)N2C1 [PP2773]	B (a compound having 3 or more and less than 10 is denoted as B)	B (a compound having 3 or more and less than 10 is denoted as B)
